US8734787B2, “Drug delivery system” (Erydel S.p.A., priority 2009, dated 2014)

Experiments:
human erythrocytes = assay: Loading of recombinant FKBP12 into human erythrocytes (cell recovery, corpuscular indices); details: at the three tested concentrations (20, 40 and 80 μM)
Experimental: recombinant FKBP12 was encapsulated into human erythrocytes by means of a procedure of hypotonic dialysis, isotonic resealing and “reannealing” as previously described [Magnani M 1989]. In particular, human red blood cells were obtained from fresh blood collected in heparin from healthy donors and washed with physiologic solution containing Hepes 10 mM (pH 7.4), NaCl 154 mM and Glucose 5 mM to remove leukocytes and platelets. Recovered RBC were re-suspended at 70% haematocrit in physiologic solution, the suspension aliquoted in 3 tubes and rFKBP12 added at increasing concentrations (20, 40, 80 μM/tube). Each erythrocyte suspension was dialysed in dialysis tube with 3.5 kDa cut-off for 90 minutes at 4° C. against 50 volumes of hypotonic solution 60 mOsm containing NaH2PO4 10 mM, NaHCO3 10 mM pH 7.4, glucose 20 mM, GSH 3 mM and ATP 2 mM. At the end of the dialysis step, RBC suspensions were collected and allowed to equilibrate at 37° C. for 5 minutes under gentle stirring. […] RBC corpuscolar indices MCV, Mean Corpuscular Volume, MCH, Mean Corpuscular Haemoglobin and MCHC, Mean Corpuscular Haemoglobin Concentration) were evaluated for both loaded and un-loaded cells at the end of the procedure.

[1] = Preliminary binding studies rFKBP12-FK506 (Dot Blot); details: 2.5, 5, 10 μg/well protein
Experimental: the ability of 6His-FKBP12 to bind the FK506 ligand was assessed by a slightly modified Dot Blot analysis. Briefly, 6His-FKBP12 in native conditions was dot-blotted onto a 0.2 μm nitrocellulose membrane at increasing concentrations (2.5, 5, 10 μg/well). Successively, the membrane was subjected to a single incubation step with a solution of Tacrolimus-horseradish peroxidase conjugate (PRO-Trac™ II Tacrolimus 5× Conjugate, DiaSorin, Stillwater, Minn., USA) to allow FKBP12-Tacrolimus binding.

erythrocytes [2] = assay: Literature: distribution of FK506 in blood and RBC binding capacity; type: in vitro ADME; details: calculated
[3] = 10-12 hours post-dose; cited from earlier work
erythrocytes [4] = details: cited from earlier work

Row | Compound | haemolytic effect (human erythrocytes) | ability to bind the FK506 ligand [1] | FK506 binding capacity for native RBC (erythrocytes [2]) | therapeutic window [3] | binding capacity of RBC (erythrocytes [4]) | fraction in blood associated with erythrocytes (erythrocytes [4]) | fraction in blood associated with lymphocytes (erythrocytes [4]) | fraction in blood associated with plasma (erythrocytes [4])
1 | recombinant FKBP12: N-terminal His-tagged recombinant form of human 12-kDa FK506 Binding Protein expressed in E. coli BL21(DE3) | does not appear haemolytic | able to bind Tacrolimus in a specific and dose-dependent manner | – | – | – | – | – | –
2 | C=CC[C@@H]1/C=C(\C)C[C@H](C)C[C@H](OC)[C@H]2O[C@@](O)(C(=O)C(=O)N3CCCC[C@H]3C(=O)O[C@H](/C(C)=C/[C@@H]3CC[C@@H](O)[C@H](OC)C3)[C@H](C)[C@@H](O)CC1=O)[C@H](C)C[C@@H]2OC (relative stereo) [FK506, 3S-[3R*[E(1S*,3S*,4S*)],4S*,5R*,8S*,9E,12R*,14R*,15S*,-16R*,18S*, 19S*,26aR*]]-5,6,8,11,12,13,14,15,16,17,18,19,24,25,26,26a-hexadecahydro-5,19-dihydroxy-3-[2-(4-hydroxy-3-methoxycyclohexyl)-1-methylethenyl]-14,16-dimethoxy-4,10,12,18-tetramethyl-8-(2-propenyl)-15,19-epoxy-3H-pyrido[2,1-c][1,4]oxaazacyclotricosine-1,7,20,21(4H,23H)-tetrone mono-hydrate] | – | – | 0.4 μg/ml RBC 40% Ht | 5-20 ng/ml whole blood | around 440 ng/ml of blood | about 85% | 0.46% | 14%
